Reference: patent EP1285919A1, “C10 Carbonate substituted taxanes as antitumor agents” (Florida State University Research Foundation, Inc., priority 2001, dated 2003)
Read-outs that look alike come from different tables or passages of the source.

What was measured:
HCT116 = assay: In vitro cytotoxicity, cell colony formation assay; type: cell-based; conditions: read-out: IN VITRO ID 50
Method: In Vitro cytotoxicity measured by the cell colony formation assay
Four hundred cells (HCT116) were plated in 60 mm Petri dishes containing 2.7 mL of medium (modified McCoy's 5a medium containing 10% fetal bovine serum and 100 units/mL penicillin and […] streptomycin). The cells were incubated in a CO2 incubator at 37 °C for 5 h for attachment to the bottom of Petri dishes. The compounds identified in Example 2 were made up fresh in medium at ten times the final concentration, and then 0.3 mL of this stock solution was added to the 2.7 mL of medium in the dish. The cells were then incubated with drugs for 72 h at 37 ° C. At the end of incubation the drug-containing media were decanted, the dishes were rinsed with 4 mL of Hank's Balance Salt Solution (HBSS), 5 mL of fresh medium was added, and the dishes were returned to the incubator for colony formation. The cell colonies were counted using a colony counter after incubation for 7 days.

SK-MES carcinoma = tested on: SK-MES carcinoma
Method: (§1) In Vivo Evaluation of Antitumor Compounds Against Human Lung Carcinoma Xenografts
(§2) The compounds were prepared in the manner as described for Solution 2 of Example 10. Taxol (paclitaxel, Bristol Meyers Squibb), used as a control, was obtained as the marketed pharmaceutical drug.
(§3) Taxol itself was given as a split i.v. dose of 36 mg/kg, with the two 18 mg/kg doses separated by one hour. Vehicle control animals were dosed twice intravenously with half the total volume being given separated by one hour. The study was terminated on Day 60.
(§4) The results are summarized in Table 1 and include mean days of survival (MDS), number of toxic deaths, number of survivors, number of complete or partial responses, and number with stable disease. The mean days of survival is the number of days after which a SKMES neoplasm reached a size of 1.5 g and the animal was euthanized. A complete response is obtained if the tumor is not palpable at the end of the study. A partial response is obtained if the tumor shrinks to a size smaller than its size on Day 1 of the study.
(§5) A tumor scoring system was designed to provide a more quantitative ranking of efficacy (therapeutic potential) among the antitumor agents evaluated against the different human solid tumor xenografts. Each mouse in a study was given a score of from 1 to 10 at the end of the study. The scores can be summarized as follows:
(§6) The individual score for each mouse was averaged into a mean score for each treatment group. […]

[1] = tested on: NCI-H1299 (H1299) carcinoma
Method: as §1, §2, §3, §4, §5, §6
The treatment protocol for the H1299 test was identical to the SK-MES test protocol. […]

[2] = tested on: SKMES Human Lung Carcinoma Xenograft
Method: The compound was administered as a single bolus by the oral route in a study to investigate the efficacy of this compound against the SKMES human lung cancer xenograft.
Female Nu/Nu mice (6-8 weeks of age; implanted with 1 mm^3 SKMES lung carcinoma fragments in the flank) were sorted into four treatment groups of six mice each. SKMES size ranges and group mean SKMES size ranges were 126-448 mg and 238-241 mg, respectively. […] Treatments were administered as a single oral bolus on Day 1, and the study was terminated on Day 60.
as §4, with “Table 13” for “Table 1”, “of 2.0” for “of 1.5”
The total response rate was 100% with four complete responses and two partial responses. The total response rate is defined as the percentage of evaluable animals (excluding deaths due to procedure or toxicity) in a group that experience complete or partial responses at the termination of the study.

[3] = tested on: A2780 Human Ovarian Carcinoma Xenografts; assay: In vivo evaluation against A2780 ovarian carcinoma xenografts; parameters: species or system NCr-nude mice
Method: In Vivo Evaluation of Antitumor Compounds Against A2780 Human Ovarian Carcinoma Xenografts
The A2780 group mean size range was 237-243 mg. Dosing was initiated on Day 1. […] Treatment groups are detailed in Table 5.

[4] = tested on: A375 Human Melanoma Xenografts; assay: In vivo evaluation against A375 melanoma xenografts
Method: In Vivo Evaluation of Antitumor Compounds Against A375 Human Melanoma Xenografts
Antitumor compounds were prepared in a vehicle of 5% ethanol, 5% Cremophor and 90% isotonic saline in the manner as described for Solution 1 of Example 10. Taxol (paclitaxel; Bristol Meyers Squibb) and Taxotere (docetaxel; Rhône-Poulenc Rorer) were obtained as the marketed pharmaceutical drugs. The dosing volume was 0.3 ml per 20 g mouse.
Female NCr-nude mice were implanted subcutaneously with 1 mm^3 A375 melanoma fragments in the flank were sorted into treatment groups of six mice each, except the Taxotere treatment group which was a group of seven mice. […] Dosing was initiated on Day 1. The antitumor compounds were given i.v. at an estimated maximum tolerated dose (MTD) appropriate for each agent on a qd x 1 schedule (single administration of compound). The i.v. taxol was given on the qd x 1 schedule as two split doses (one hour between) of 12 mg/kg per split dose (total dose = 24 mg/kg). Taxol was also administered i.p. on a qd x 5 schedule at a daily dose of 18 mg/kg. Taxotere was given i.v. on a qd x 1 schedule at a dose of 70 mg/kg. The vehicle was administered i.v. to control mice in Group 1 on the qd x 1 schedule. The study was terminated on Day 60. Treatment groups are detailed in Table 7.
as §4, with “Table 8” for “Table 1”, “a” for “a SKMES”, “of 2.0” for “of 1.5”, “complete” for “complete response is obtained if the tumor is not palpable at the end of the study. A partial”

[5] = tested on: VM46 Human Colon Carcinoma; assay: In vivo evaluation against VM46 colon carcinoma xenografts; parameters: species or system NCr-nude mice
Method: In Vivo Evaluation of Antitumor Compounds Against VM46 Human Colon Carcinoma
The VM46 tumor group mean size range was 181-188 mg. Dosing was initiated on Day 1. […] Taxotere was given i.v. at a dose of 70 mg/kg on a qd x 1 schedule. […] The study was terminated on Day 64. Treatment groups are detailed in Table 11.

[6] = HCT116, 72 h with drug, colonies counted after 7 days, concentration producing 50% inhibition of colony formation
[7] = number of mice of six, i.v. split dose qd x 1, Taxol 36 mg/kg, 1755 49 mg/kg
[8] = 1755 49 mg/kg single oral bolus, six mice
[9] = Group 4: 49 mg/kg single oral bolus Day 1, 6 mice, study to Day 60
[10] = Group 5: 70 mg/kg i.v. qd x 1, group of six mice, study to Day 60
[11] = i.v. qd x 1, Taxol 24 mg/kg, Taxotere 70 mg/kg
[12] = i.v. qd x 1, Taxol 24 mg/kg, Taxotere 70 mg/kg, 2.0 g cut-off
[13] = Group 5: 70 mg/kg i.v. qd x 1, 7 mice, study to Day 60
[14] = Group 5: 70 mg/kg i.v. qd x 1, 6 mice, study to Day 64

With `CCOC(=O)OC1C(=O)C2(C)C(O)CC3OCC3(OC(C)=O)C2C(OC(=O)c2ccccc2)C2(O)CC(OC(=O)C(O)C(NC(=O)OC(C)(C)C)c3cccs3)C(C)=C1C2(C)C` (stereo not shown) [Compound 1755, 3'-Desphenyl-3'-(2-thienyl)-10-ethoxycarbonyl-10-deacetyl taxotere] the IC50 (HCT116; [6]) was less than 1 nM, the tolerability (SK-MES carcinoma; 1755 49 mg/kg i.v.) was “well tolerated” and the “Toxic Deaths” value (SK-MES carcinoma; [7]) was 0. For the same compound, the Survivors (SK-MES carcinoma; number of mice of six, study ended Day 60) was 6, the “Stable Disease” value (SK-MES carcinoma; number of mice of six, tumor below 1.5 g at end of study) was 1 and the “Partial Response” value (SK-MES carcinoma; number of mice of six, tumor smaller than on Day 1) was 0. The “Mean Score” value (SK-MES carcinoma; tumor score 1 to 10 per mouse, averaged per group (10 = complete response)) was 9.2 ± 0.8, the “Partial Response” value ([1]; number of mice of six) was 0 and the “Stable Disease” value ([1]; number of mice of six) was 1. For the same compound, the Survivors ([1]; number of mice of six) was 4, the “Toxic Deaths” value [1, 7] was 2 and the “Mean Score” value ([1]; tumor score 1 to 10 per mouse, averaged per group) was 5.8 ± 2. The total response rate ([2]; 1755 49 mg/kg single oral bolus Day 1, six mice, study ended Day 60) was 100%, the complete responses [2, 8] was “four” and the partial responses [2, 8] was “two”. For the same compound, the “% Total Response” value [2, 9] was 100%, the “Complete Response” value [2, 9] was 4 and the “Partial Response” value [2, 9] was 2. For the same compound, the “Stable Disease” value [2, 9] was 0, the Survivors [2, 9] was 6 and the “Toxic Deaths” value [2, 9] was 0.
`CC(=O)O[C@@]12CO[C@@H]1C[C@H](O)[C@@]1(C)C(=O)[C@H](O)C3=C(C)[C@@H](OC(=O)[C@H](O)[C@@H](NC(=O)OC(C)(C)C)c4ccccc4)C[C@@](O)([C@@H](OC(=O)c4ccccc4)[C@H]21)C3(C)C` [Docetaxel, docetaxel] was tested, and the IC50 (HCT116; Homo sapiens, HCT-116) was 0.6 nM, the “MDS (n)” value ([3]; Group 5: 70 mg/kg i.v. qd x 1, group of six mice, n=5, 2.0 g endpoint, study to Day 60) was 27.4 ± 3.5 (5) days and the “Complete Response” value [3, 10] was 0. The “Mean Score” value [3, 10] was 2.5 ± 0.3, the “Partial Response” value [3, 10] was 0 and the “Stable Disease” value [3, 10] was 0. For the same compound, the Survivors [3, 10] was 0, the “Toxic Deaths” value [3, 10] was 0 and the “increase in survival / survival extension compared to Group 1 controls” value [3, 11] was 134%. The MDS [3, 12] was 27.4 days, the “MDS (n)” value ([4]; Group 5: 70 mg/kg i.v. qd x 1, 7 mice, n=7, 2.0 g endpoint, study to Day 60) was 21.5 ± 0.5(7) days and the “Complete Response” value [4, 13] was 0. The “Mean Score” value [4, 13] was 2 ± 0, the “Partial Response” value [4, 13] was 0 and the “Stable Disease” value [4, 13] was 0. For the same compound, the Survivors [4, 13] was 0, the “Toxic Deaths” value [4, 13] was 0 and the “survival extension compared to Group 1 controls” value [4, 11] was 49%. The MDS [4, 12] was 21.5 days, the “MDS (n)” value ([5]; Group 5: 70 mg/kg i.v. qd x 1, 6 mice, n=6, 1.5 g endpoint, study to Day 64) was 45.3 ± 3.6(6) days and the “Complete Response” value [5, 14] was 0. The “Mean Score” value [5, 14] was 2 ± 0, the “Partial Response” value [5, 14] was 0 and the “Stable Disease” value [5, 14] was 0. The “Toxic Deaths” value [5, 14] was 0 and the MDS ([5]; i.v. qd x 1, Taxol 24 mg/kg (four mice), Taxotere 70 mg/kg, 1.5 g endpoint) was 45.3 days.
`CCCC(=O)NC(c1cccs1)C(O)C(=O)OC1CC2(O)C(OC(=O)c3ccccc3)C3C4(OC(C)=O)COC4CC(O)C3(C)C(=O)C(OC(=O)OCC)C(=C1C)C2(C)C` (stereo not shown) [Compound 3155] was tested, and the IC50 (HCT116; [6]) was less than 1 nM.
`CCOC(=O)OC1C(=O)C2(C)C(O)CC3OCC3(OC(C)=O)C2C(OC(=O)c2ccccc2)C2(O)CC(OC(=O)C(O)C(NC(=O)OC(C)(C)C)c3ccncc3)C(C)=C1C2(C)C` (stereo not shown) [Compound 1811] showed an IC50 (HCT116; [6]) of less than 1 nM.
